The source of these data is patent US20250205195A1, “BENZYLOXY-BENZYLAMINYL AMINO ACID DERIVATIVE FOR ADJUSTING TSLP/TSLPR SIGNAL TRANSMISSION” (AMTIXBIO CO., LTD., priority 2021, published 2025).

The subject of the assay is skin-specific T cells. Put plainly: FACS analysis of T cell fractions in skin tissue isolated from atopic dermatitis patients. The class given is cell-based, human. The note with it: patient skin tissue, 16 g/mL, 8 g/mL. An excerpt:
For tissues isolated from the skin of atopic dermatitis patients (Yonsei Severance Hospital, South Korea) followed by the treatment of the compound 27 of the present invention, T cell fractions were compared, and the results are presented in FIG. 16 (Data are shown as mean standard deviation (SD). ** P<0.01, * P<0.05).

Turning to `CCC(NC)C(=O)NCc1ccc(OCc2ccc(C(F)(F)F)cc2)cc1` (racemic) [Compound 27, (R)/(S)-2-(methylamino)-N-(4-((4-trifluoromethyl)benzyl)oxy)benzyl)butanamide], the “CD69+ T cells and CD103+ T cells” value is reported as “remarkable reduction”; the “proportion of skin-specific T cells” value is “concentration-dependent significant decrease”.
